Experimental findings from US5202314A, “10-thioethyl-steroids” (Roussel Uclaf, priority 1991, dated 1993) are described below.

In the test the target is T1, aromatase (Homo sapiens, UniProt P11511).
T1 construct: The supernatant was then subjected to an ultracentrifugation stage (90 minutes, 105,000 g) to obtain the microsomal regulus; from tissue; host or cells: human placenta, microsomal fraction
T1 sequence (P11511 1-503): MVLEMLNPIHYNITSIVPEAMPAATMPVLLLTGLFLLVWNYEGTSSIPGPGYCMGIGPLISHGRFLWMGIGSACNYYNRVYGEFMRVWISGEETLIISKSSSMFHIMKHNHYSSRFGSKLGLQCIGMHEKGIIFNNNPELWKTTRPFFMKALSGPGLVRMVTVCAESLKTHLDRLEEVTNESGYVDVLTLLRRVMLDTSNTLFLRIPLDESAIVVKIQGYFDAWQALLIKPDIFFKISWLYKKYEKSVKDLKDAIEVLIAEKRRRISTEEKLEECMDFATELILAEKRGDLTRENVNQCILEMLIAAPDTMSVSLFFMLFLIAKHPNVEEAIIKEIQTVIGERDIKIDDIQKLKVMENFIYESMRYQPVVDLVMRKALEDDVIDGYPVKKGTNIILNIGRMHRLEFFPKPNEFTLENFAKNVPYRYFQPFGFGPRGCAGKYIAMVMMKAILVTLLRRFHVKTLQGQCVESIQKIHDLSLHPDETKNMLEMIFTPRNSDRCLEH
Nature of the test: Inhibition of aromatase in human placental microsomes (tritiated water release from 1β-2β-3H-Androstenedione). In kind it is biochemical. The settings on record: 25 micrograms of proteins per test, substrate Androstenedione 500 nM, NADPH, 37° C., 10 minutes, read-out: IC50 (concentration of inhibitor necessary to decrease by 50% the enzymatic activity). The protocol:
Inhibition dependent on the concentration (measurement of IC50 =concentration of inhibitor necessary to reduce the enzymatic activity by 50%). Human placentas were used which were washed one hour at most after birth, perfused with physiological serum (5 liters) via the umbilical vein and then deep-frozen at -40° C.
(1) Obtaining the placental microsomes
The placentas were thawed at 4° C. and then homogenized (1:3) in a phosphate buffer 10 mM, pH=7.0; containing 100 millimoles of potassium chloride (KCl), 10 millimoles of dithiothreitol (DTT), 10 millimoles of ethylenediaminetetraacetic acid (EDTA), 40 millimoles of nicotinamide and 250 millimoles of sucrose. […]
The supernatant was then subjected to an ultracentrifugation stage (90 minutes, 105,000 g) to obtain the microsomal regulus. […] The protein concentration of the microsomal suspension was determined by the BRADFORD method BRADFORD M., Anal. Biochem., Vol. 72, (1976), p. […]
After centrifugation, 100 microliters of supernatant were taken from each tube and counted in the presence of a scintillating liquid. […] The inhibition obtained for each concentration of each inhibitor product of the invention was calculated as a percentage of the controls (arbitrary 100% , obtained in absence of any inhibitor). […]

Take `CSCC[C@]12CCC(=O)C=C1[C@H](O)C[C@H]1[C@@H]3CCC(=O)[C@@]3(C)C[C@H]3O[C@]312` [Example 2, 9α, 11α-epoxy-10β-[2-methylthio-ethyl]-Δ^4-estrene-6β-ol-3,17-dione]: the IC50 was determined as 180 nM.
